For data set [1], the system named is C6 cells. In words: Mitochondrial membrane potential (MMP) dependent uptake of FTPP in C6 cells (CCCP, valinomycin, high K+ Hepes buffer). Format: cell-based, rat. As to the method: The extent of MMP and cell membrane potential-dependent cellular uptake of FTPP was further assessed using the C6 cells treated with CCCP, valinomycin, and high K^+ Hepes buffer (5 mM NaCl/135 mM KCl/1.8 mM CaCl2/0.8 mM MgSO4/50 mM Hepes/5.5 mM dextrose, pH 7.4). Carbonylcyanide-m-chlorophenylhydrazone (CCCP), a known protonphore that selectively abolishes the MMP,^26 was dissolved in dimethyl sulfoxide (DMSO) and diluted to desired concentration with low K^+ Hepes buffer. K^+-ionophore valinomycin was dissolved in ethanol and also diluted with low K^+ buffer. Final concentrations of ethanol and DMSO were below 0.1%. Varying concentrations of CCCP and valinomycin were added to the 0.5×10^6 cells in low K^+ Hepes buffer 30 min prior to the start of the experiment. After 1 hr of incubation with 5 μM FTPP, the eppendorf vials were centrifuged, cell lysate were prepared as described above, and the cell uptakes of FTPP were determined using MALDI-TOF-MS. Five sets of 0.5×10^6 cells were also suspended in high K^+ Hepes buffer for 60 min, then exposed to 5 μM FTPP for 10-90 min in high K^+ Hepes buffer. Cell uptake of FTPP was measured by MALDI-TOF-MS. The viability and the integrity of the cells after treatment with inhibitors and high K^+ buffer were examined using Trypan blue.

Data set [2] has as its system C6 cells. Description: C6 cell uptake of phosphonium cations determined by MALDI-TOF-MS. The class given is cell-based, rat. The settings on record: 5 μM; for rank of uptake in C6 cells among the compounds tested: 25° C. How it is done:
A rat glioma C6 cell line was grown in Dulbecco's modified Eagle medium (DMEM, Invitrogen Life Technologies, Carlsbad, Calif.) high glucose (containing KCl 5.3 mmol/L and NaCl 110.34 mmol/L) plus 10% fetal bovine serum (FBS), and 1% penicillin-streptomycin at 37° C. in 5% CO2/95% air. After trypsinization, cells were washed with 0.01 M phosphate-buffered saline (PBS, pH=7.4) twice and suspended at 10×10^6 cells /mL in low K^+ Hepes buffer (135 mM NaCl/5 mM KCl/1.8 mM CaCl2/0.8 mM MgSO4/50 mM Hepes [4-(-2-hydroxyethyl)-1-piperazineethanesulfonic acid]/5.5 mM dextrose, pH 7.4). 50 μL (0.5×10^6) of C6 cells were incubated with 10 μL 100 μM stock phosphonium salts solution ([…], the structures of these phosphonium cations are shown in FIG. 1) and 140 μL Hepes buffer from 10 to 90 min at room temperature. The cells were centrifuged (250×g) for three minutes and washed twice with cold PBS buffer at specified times. Cell pellets were then lysed with 150 μL cold spectral grade water, following by freezing in dry ice. Right before the MALDI-TOF-MS analysis, the frozen cell solution was thawed and centrifuged at 12000×g for 5 min. 90 μL cell lysate and 10 μL 10 μM internal standard MeTPP were mixed together, and 1 μL solution was subjected to MALDI-TOF-MS analysis. Samples were prepared and analyzed in triplicate.

The nature of data set [3]: MicroPET imaging, biodistribution and pharmacokinetic in normal nude mice. The class given is in vivo, mouse. The conditions noted are these: for heart uptake / liver uptake: tail vein, microPET ROI. As to the method:
PET imaging of normal nude mice was performed on a microPET R4 rodent model scanner (Concorde Microsystems Inc, Knoxville, Tenn.). The mice were injected with about 10-20 μCi of [^18F]FTPP via the tail vein. At 30 min, 1 hr, 2 hr, and 4 hr post injection, the mice were anesthetized with 2% isoflurane and placed in the prone position and near the center of the filed of view of microPET. The 10-min static scans were obtained, and the images were reconstructed by a two-dimensional ordered subsets expectation maximum (OSEM) algorithm. Regions of interest (ROIs) were then drawn over the […] on decay-corrected whole-body coronal images. The counts per pixel per minute were obtained from the ROI and converted to counts per milliliter per minute by using a calibration constant. By assuming a tissue density of 1 g/mL, the ROIs were converted to counts/g/min. An image ROI-derived percentage ID per gram of tissue (% ID/g) was then determined by dividing counts per gram per minute with injected dose (ID).

As for `Fc1ccc([P+](c2ccccc2)(c2ccccc2)c2ccccc2)cc1` [FTPP, 4-Fluorophenyltriphenyl phosphonium], the “FTPP uptake (normalized) in presence of valinomycin” value in data set [1] (10 μM valinomycin, 5 μM FTPP, 1 hr, low K+ Hepes buffer) is “about 72.8±3.6%”. For the same compound, the “FTPP uptake (normalized) in presence of CCCP” value in data set [1] (50 μM CCCP, 5 μM FTPP, 1 hr, low K+ Hepes buffer) is given as “about 27.3±2.3%”. The “effect of CCCP or valinomycin on uptake” value in data set [1] (CCCP 0.1-50 μM, valinomycin 0.1-10 μM, low K+ Hepes buffer) is “inhibited by CCCP or valinomycin in dose-dependent manners”. The “decrease in uptake on depolarization of the plasma membrane (high K+ vs low K+ buffer)” value in data set [1] (high K+ Hepes buffer, 90 min exposure time, 5 μM FTPP) is reported as 3.5 fold. Further, the “rank of uptake in C6 cells among the compounds tested” value in data set [2] worked out at 2nd place. The “uptake in C6 cells as percentage of the TPP uptake” value in data set [2] (glioma C6 cells in vitro, MALDI-TOF-MS) is 80%.

As to `[Br-].c1ccc([P+](c2ccccc2)(c2ccccc2)c2ccccc2)cc1` [TPP, tetraphenylphosphonium bromide, reference compound], the “rank of uptake in C6 cells among the compounds tested” value in data set [2] is recorded as “highest uptake”.

Regarding `[18F]c1ccc([P+](c2ccccc2)(c2ccccc2)c2ccccc2)cc1` [[^18F]FTPP, (4-[^18F]fluorophenyl)triphenylphosphonium], in data set [3] (30 minutes pi), the heart uptake was 5.59±0.93 % ID/g and the liver uptake is 7.39±0.36 % ID/g. In data set [3] (4 h pi), this compound registered a heart uptake of 3.89±0.29 % ID/g and a liver uptake of 2.79±0.59 % ID/g. Moreover, in data set [3] (female nude mouse, 15 μCi), the “localization in microPET images” value is on record as “clearly localized in the heart” and the “route of clearance” value is “mainly cleared out through hepatobiliary system”.

These data come from patent publication US20070092442A1, “F-18-fluorinated phosphonium cation imaging agents and methods of synthesis” (priority 2005, published 2007).
